The values below come from patent publication US7169604B1, “Method for PR-39 peptide mediated selective inhibition of IκBα degradation” (Beth Israel Deaconess Medical Center, priority 1998, dated 2007).

In one data set the test system is ICAM-1 and VCAM-1. Kind of data set: ICAM-1 and VCAM-1 expression in mouse infarct model. It is filed as in vivo. Conditions: transgenic αMHC-PR-39 mice vs control mice, coronary artery ligation, 1, 3 or 7 days. The text has this:
NFκB-dependent transcription is also activated following induction of ischemia in the heart, leading to increased expression of several adhesion molecules, including ICAM-1 and VCAM-1. To test the effect of PR-39 peptide on NFκB-dependent gene expression in this model, we assessed VCAM-1 and ICAM-1 protein levels following induction of myocardial infarction in transgenic mice expressing PR-39 cDNA in cardiac myocytes (αMHC-PR-39) and age-matched control mice. The result is given by FIG. 2D.
Transgenic mice stably expressing PR-39 in cardiac myocytes (αMHC-PR-39 mice) or litter mate controls (control mice) were subjected to acute coronary artery ligation as described (30) and randomized to intraperitoneal implantation of Alzet minipumps (Alza Corp, Palo Alto, Calif.) delivering 1 μg/kg/24 hr of PR-39 or buffer. Myocardial tissues collected 1, 3 or 7 days later were subjected to Western blot analysis for ICAM-1 and VCAM-1 gene expression that were normalized to expression levels prior to induction of infarction. Note the rapid increase in both ICAM-1 and VCAM-1 expression in control but not αMHC-PR-39 mice.
In contrast, induction of myocardial infarction had no effect on either ICAA-1 or VCAM-1 protein levels in αMHC-PR-39 mice.

A further data set concerns NFκB. Briefly: NFκB-dependent luciferase reporter (pNFκB-Luc) in ECV304 cells. It is filed as cell-based, human. Conditions: 45 min pretreatment with 10 nM, TNF-α 1 ng/ml. The procedure: The results are presented by FIG. 2A.
The effect of PR-39-mediated inhibition of IκBα degradation on NFκB-dependent transcription was tested in ECV304 cells transiently transfected with pNFκB-Luc reporter vector.
(In general: A reporter such as luciferase makes a cellular process visible.)

Data set [1] deals with IκBα. Briefly: IκBα phosphorylation in U937 cell culture. It counts as cell-based, human. Conditions: U937 cells, 10 μM pretreatment, TNFα 1 ng/ml, 45 min. Here is the method: To explore potential mechanisms of this selective inhibition, the effect of peptide administration on IκBα phosphorylation and ubiquitination was studied. It is known that TNF-α treatment leads to phosphorylation of IκBα, which is required for its subsequent ubiquitination. The result is indicated by FIG. 4A.
U937 cells cultured in the absence (−) or presence (+) of pretreatment with 10 μM PR-39 were exposed to 1 ng/ml TNFα. 45 min later the cells were lysed and subjected to SDS-PAGE and Western blotting with anti-IκBα antibody. Note the increased amount of the typical-appearing phosphorylated IκKBα band in PR-39 treated cells.

Another data set deals with HSP70. Kind of data set: HSP70 expression by Western blotting. It is filed as cell-based, human.
For data set [2], the system named is IκBα. Kind of data set: IκBα protein levels in ECV304 cells by Western blotting. It counts as cell-based, human. The settings on record: ECV cells, 2 hr exposure, 100 or 50 nM. Here is the method: For IκBα expression studies, normally proliferating wild type ECV304 cells (ECV) or ECV-PR-39 and ECV-E4 cells were lysed in the loading buffer, subjected to electrophoresis on 10% SDS-PAGE gel and transferred to a PVDF membrane. IκBα expression was then determined by Western blotting with anti-IκBα antibody (Santa Cruz, Inc.). ECV304 cells treated for 2 hr with 10 μM of lactacystin (LC) were used as control.
Western blotting of ECV cell lysate was carried out following 2 hr exposure to buffer (0) or 100 or 50 nM of PR-39. […] Clearly, exposure of wild type ECV304 cells to the synthetic PR-39 peptide led to a dose-dependent increase in IκBα levels.
A general note: In western blotting, separated proteins are transferred to a membrane and probed.

For the next data set, the system named is ECV304 cells. Briefly: Cell growth in culture (Coulter cell counts). It is filed as cell-based, human. Conditions: 10 μM, 48 hours. Here is the method: Prolonged exposure to proteasome inhibitors tend to induce apoptosis in cell culture. To assess the potential cytotoxicity of PR-39, ECV304 cells were cultured in the presence of 10 μM of PR-39, MG132 or lactacystin.
50,000 ECV304 cells were plated in 6 well plates in 10% FBS-M199 and synchronized by serum deprivation in 0.5% FBS-DMEM for 48 hr. At the end of that time, cell culture medium was changed to 10% FBS-M199 and 10 μM of PR-39, lactacystin or buffer (control) were added. Forty eight hours later cell counts were determined using a Coulter Counter (Coulter Instruments, Inc.). All experiments were performed in triplicate and repeated 2 times (mean±SD).

A further data set addresses T1, 20S proteasome (Homo sapiens, UniProt P25788).
T1 construct: endogenous in cells; host or cells: ECV304 cells stably expressing porcine PR-39 constructs
Briefly: Co-immunoprecipitation of PR-39 and 20S subunits in ECV cells. It is filed as binding. The settings on record: ECV304 cells transfected with PR-39 constructs; anti-PR-39 antibody. The source says: In order to confirm that PR-39 and the a7 subunit interact in cells, a polyclonal anti-PR-39 antibody was used to immunoprecipitate PR-39 protein from EVC304 cells transfected with cDNA constructs corresponding either to the full length (EVC-PR-39) or exon 4 (39 amino acid C-terminal domain) (ECV-E4) of the porcine PR-39 gene.
Full-length porcine cDNA (containing the leader sequence) and a cDNA construct corresponding to the 4th exon of porcine PR-39 gene were cloned into eukaryotic expression vector pGRE5-2 (USB) and used to stably transfect an immortalized human endothelial cell line (ECV304, ATCC). For co-immunoprecipitation, wild type ECV, full-length PR-39 (ECV-PR-39) and exon 4 PR-39 (ECV-E4) transfected cells were cultured in 10% FBS-M199. Cells were lysed with the RIPA buffer, and equal amounts of total protein were pre-cleared with non-immune rabbit serum and protein G plus/protein A-agarose beads (Calbiochem). The cleared samples were incubated at 4° C. overnight with 20 μl of polyclonal anti-PR-39 antibody and 40 μl of protein G plus/protein A-agarose beads or with the beads alone. […]

Ends that are not written are not given here.

Consider “RRRPRPPYLPRPRPPPFFPPRLPPRIPPGFPPRFPPRFP [PR-39]”, for which the “NFκB-dependent gene expression (ICAM-1 and VCAM-1 protein levels)” value in the data set with ICAM-1 and VCAM-1 is on record as “blocks NFκB-dependent gene expression”. Moreover, in the data set on NFκB, the “TNF-α induced increase in luciferase activity” value is given as “completely blocked”. In the data set with IκBα [1], the “amount of phosphorylated IκBα” value is given as “increased the amount of the phosphorylated form of IκBα”. Further, the HSP70 expression result with HSP70 (U937 cells, 1 μM, 3 hr exposure) is reported as “lack of induction of HSP70 expression”. Also, in the data set on HSP70 (cultured ECV304 cells, 10 μM), the HSP70 levels entry was “failed to stimulate HSP70 accumulation”. Besides, the IκBα protein levels entry in the data set with IκBα [2] was “dose-dependent increase in IκBα protein levels”. Further, the cell counts result in the data set with ECV304 cells is reported as “lack of significant growth inhibition”. Besides, the “binding to 20S proteasome (co-immunoprecipitation of α7 and α2 subunits)” value in the data set with 20S proteasome was “can bind to the 20S proteasome particle via an interaction with the a7 subunit”.
